Key:
Sprague Dawley rats = assay: Forced swimming test (FST); type: in vivo, rat; settings: 10 mg/kg subcutaneously, 24, 5, 1 h before testing
Description: Drugs were administered following the traditional dosing regimen used in the FST consisting of three injections: 24, 5, 1 h before testing.
The FET is currently the most widely used animal model for assessing depression related behavior and antidepressant drug activity in rodents (Cryan et al., Neubiorev. 2005). Rats are placed in an inescapable cylinder of water where they develop an immobile posture believed to reflect a “depressive”-like state. The Lime rats spend immobile is decreased by drugs exerting antidepressant activity.
Additional behaviors can be detected in the FST; namely, climbing and swimming. It has been shown that swimming behavior is sensitive to SSRIs such as fluoxetine whereas climbing is sensitive to norepinephrine re-uptake inhibitors (NRI) such as desipramine.

CHI traumatized rats = assay: MRI of ventricular dilatation after Closed Head Injury (CHI); type: in vivo, rat; settings: day 28 post-trauma, 20 mg/kg starting 24 hours post-trauma, compared to the vehicle
Excerpt: The model “Closed Head Injury” (CHI), also commonly known as “weight-drop”, “impact-acceleration” or Marmarou model, allows the induction of TBI on a closed skull and generates diffuse axonal injuries (Holtzer et al 2001). After anesthesia induction, the scalp was incised, a piece of metal (diameter 10 mm, height 3 mm)—designed to protect against skull fracture—was glued to the skull, between the lambda and bregma. The animal was then placed on a foam bed and a cylindrical metallic 230-g weight was dropped from 2 m through a metal tubing onto the disk. At the very moment of the impact, the head of the animal plunged briefly in the foam bed, which leads to an acceleration/deceleration of the brain inside the skull.
To determine lateral ventricle preservation, as well as lesion size (in the CCI model), T2-weighted MRI was performed 28 days after injury (D28). Acquisition was performed on a 7T Bruker AVANCE BIOSPEC—horizontal magnet, with rapid acquisition and relaxation enhancement (RARE).
MRI imaging of rats was performed at day 28 post-trauma. Based on MRI imaging, ventricular dilatation induced by CHI trauma was analyzed in CHI traumatized rats injected from 24 hours post-trauma with sesame oil (CHI-D0), or 3-methoxy-PREG (MAP4343) at 10 mg/kg (CHI-D1) or 20 mg/kg (CHI-D2).

CCI traumatized animals = assay: Water Exploration Test (WET) after Controlled Cortical Impact (CCI); type: in vivo, rat; design: key to Entry number in CZ, Conclusion vs. CCI-D0: ↓: decrease of analyzed variable with p < 0.05; ?: stability of analyzed variable; ↑↑: increase in analyzed variable with p < 0.01; settings: Day 27; 20 mg/kg (CCI-D2)
Description: (§1) CCI was performed with an electromagnetic impact device as described (MyNeurolab, St. Louis, Mo.; Brody et al, 2007). Anesthesized rats were subjected to a single right lateral CCI, with the following parameters impact centered 4.0 mm anterior to lambda and 4.5 mm […] of midline, within the craniotomy of the animal. The impact was set at a velocity of 4 m/s with a sustained depression of 200 ms, using a 5.0 mm tip.
The less anxious is a rat, the more time it will, spend “floating” (null velocity) in the central zone (see Fares-2009).
More precisely, a circular tank (180 cm diameter, 60 cm high) is filled with water maintained at 27° C. to a depth of 40 cm. The water is made opaque by adding black gouache, allowing the VideoTrack system (ViewPoint) to detect the white-coloured rat. This tank is divided into 4 identical quadrants (6,358 cm2 each) using two 180 cm long opaque plastic separators. In each quadrant, one rat is introduced with its head facing the corner between the separator and the tank's wall. It is noteworthy to emphasize that 4 rats can be tested simultaneously using the 4 quadrants. […] Thus, the distance, the number of entries, the time spent, and the velocity profile in the CZ are measured to assess anxiety-like behaviour. […]
The effect of 3-methoxy-PREG (MAP4343) on anxiety induced by trauma was analyzed using the WET test.

[1] = target: T1, microtubule-associated MAP2 (Rattus norvegicus, UniProt P15146); assay: Immunolabeling of microtubule-associated MAP2 in PC12 cells; type: cell-based; settings: 20 μM, NGF 10 ng/ml
T1 construct: endogenous in cells; host or cells: PC12 cells
Excerpt: They were fixed and exposed to anti-MAP2 antibodies that reveal microtubule-associated MAP2 esclusively.
To rest the effect of selected molecules on neuritic growth, we first used the PC12 line, which has long been employed in neurobiological research. In the presence of NOF (nerve growth factor), the cells of this line, which arise from a rat pheochromocytoma, form neuritic extensions containing MAP-associated microtubules. The growth of these elongations is stimulated by the addition of PREG. […] The screening of other natural or synthetic steroids made it possible to select several molecules presenting greater effects than that of PRIG (FIG. 2). In particular, the addition of molecule 43B, which can be synthesized easily from PRIG, caused a spectacular increase (reaching as high as 500%) in the length of neurites formed in the presence of NOF (FIG. 3). This neurite growth accompanies the stimulation by 43-3 of the association of MAP2 to the microtubules (FIG. 4).

PSD95 = assay: Western blot of PSD95 in cortex and hippocampus after CCI; type: in vivo, rat; settings: day 35, 20 mg/kg, first injection 2 h post-trauma, ipsilateral injured cortex and hippocampus, contralateral cortex
Description: as §1
Samples were analyzed by Western-blot at day 35 post-trauma (D35) to evaluate the effects of MAP4343 on: MAP2 (the target of MAP4343 and a modulator of microtubule function), the post-synaptic markers PSD95 and spinophilin, the pre-synaptic marker synaptophysin, and the axonal growth/integrity marker […].
Western blot was performed on cortex and hippocampus of TBI-injured animals receiving the first injection of MAP4343 (at 10 mg/kg or 20 mg/kg) or vehicle (sesame oil) 2 h after injury.
The expression level of various neuronal brain markers of plasticity was measured at day 35 post-trauma by western-blots in the cortex and hippocampus of left uninjured and right injured cerebral hemispheres of CCI traumatized animals receiving either vehicle (sesame oil, CCI-D0) or 3-methoxy-PREG (MAP4343) at 10 mg/kg (CCI-D1) or 20 mg/kg (CCI-D2), with first MAP4343 injection 2 h post-trauma.

T1 sequence (P15146 whole entry): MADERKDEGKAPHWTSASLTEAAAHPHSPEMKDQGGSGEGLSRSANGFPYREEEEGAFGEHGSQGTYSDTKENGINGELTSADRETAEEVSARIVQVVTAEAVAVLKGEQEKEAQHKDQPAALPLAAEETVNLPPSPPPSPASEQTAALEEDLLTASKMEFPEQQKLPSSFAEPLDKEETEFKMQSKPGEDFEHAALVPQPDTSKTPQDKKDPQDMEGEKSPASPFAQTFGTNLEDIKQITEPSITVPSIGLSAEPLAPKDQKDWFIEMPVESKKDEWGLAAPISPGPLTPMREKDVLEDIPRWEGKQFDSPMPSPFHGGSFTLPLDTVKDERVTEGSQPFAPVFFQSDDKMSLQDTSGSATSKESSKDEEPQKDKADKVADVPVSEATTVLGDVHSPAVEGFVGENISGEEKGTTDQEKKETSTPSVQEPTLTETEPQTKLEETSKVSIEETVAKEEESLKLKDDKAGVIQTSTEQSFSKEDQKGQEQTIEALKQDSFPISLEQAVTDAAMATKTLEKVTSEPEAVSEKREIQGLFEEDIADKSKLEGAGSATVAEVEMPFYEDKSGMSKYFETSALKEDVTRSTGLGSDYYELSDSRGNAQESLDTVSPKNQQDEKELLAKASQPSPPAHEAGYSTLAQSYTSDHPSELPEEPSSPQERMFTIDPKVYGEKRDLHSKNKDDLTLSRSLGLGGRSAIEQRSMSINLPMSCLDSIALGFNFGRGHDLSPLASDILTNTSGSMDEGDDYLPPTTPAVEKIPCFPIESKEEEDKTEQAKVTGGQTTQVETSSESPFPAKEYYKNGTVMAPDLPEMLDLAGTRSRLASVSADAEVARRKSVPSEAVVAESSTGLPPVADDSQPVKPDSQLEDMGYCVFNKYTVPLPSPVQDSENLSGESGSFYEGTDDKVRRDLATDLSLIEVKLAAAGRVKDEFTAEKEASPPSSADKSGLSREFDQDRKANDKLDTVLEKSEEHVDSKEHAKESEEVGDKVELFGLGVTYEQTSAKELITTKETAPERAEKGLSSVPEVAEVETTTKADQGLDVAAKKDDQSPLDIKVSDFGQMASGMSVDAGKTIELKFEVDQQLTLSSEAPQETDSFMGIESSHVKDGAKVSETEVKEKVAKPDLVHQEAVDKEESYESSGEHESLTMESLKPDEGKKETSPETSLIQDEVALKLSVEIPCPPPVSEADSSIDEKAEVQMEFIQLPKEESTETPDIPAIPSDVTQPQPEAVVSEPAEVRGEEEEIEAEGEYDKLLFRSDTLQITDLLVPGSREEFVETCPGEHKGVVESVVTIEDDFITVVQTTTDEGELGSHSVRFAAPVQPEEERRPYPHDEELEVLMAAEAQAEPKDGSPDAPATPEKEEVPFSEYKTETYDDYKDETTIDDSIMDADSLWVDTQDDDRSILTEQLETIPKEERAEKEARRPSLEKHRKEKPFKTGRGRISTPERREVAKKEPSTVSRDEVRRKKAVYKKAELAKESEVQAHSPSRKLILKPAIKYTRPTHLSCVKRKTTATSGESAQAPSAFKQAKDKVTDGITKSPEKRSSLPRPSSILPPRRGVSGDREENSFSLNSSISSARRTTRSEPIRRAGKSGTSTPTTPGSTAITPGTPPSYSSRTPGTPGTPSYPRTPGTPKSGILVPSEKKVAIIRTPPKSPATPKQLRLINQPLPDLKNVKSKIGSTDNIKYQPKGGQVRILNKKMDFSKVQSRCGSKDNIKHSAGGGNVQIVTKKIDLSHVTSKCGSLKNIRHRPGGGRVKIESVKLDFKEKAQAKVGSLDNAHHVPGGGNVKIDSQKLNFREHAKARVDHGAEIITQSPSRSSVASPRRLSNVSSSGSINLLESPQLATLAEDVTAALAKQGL

CO[C@H]1CC[C@@]2(C)C(=CC[C@H]3[C@@H]4CC[C@H](C(C)=O)[C@@]4(C)CC[C@@H]32)C1 [3-methoxy-PREG, 3β-methoxy-pregna-5-ene-20-one]
rat climbing behavior in the FST (Sprague Dawley rats): not changed
rat immobility in the FST (Sprague Dawley rats): significantly decreased
rat swimming in the FST (Sprague Dawley rats): significantly increased
ventricular dilatation (CHI traumatized rats): significantly decreases the ventricular dilatation
Entry number in CZ, Conclusion vs. CCI-D0 (CCI traumatized animals): ↑↑
Time spent in CZ, Conclusion vs. CCI-D0 (CCI traumatized animals): ↑
association of MAP2 to the microtubules [1]: stimulation
PSD95 expression (PSD95): increase in PSD95 expression

Source: patent publication US9339508B2, “Use of 3-methoxy-pregnenolone for the preparation of a drug for treating a traumatic brain injury” (MAPREG, priority 2003, dated 2016)
